Results reported in article PMC9944867, “Mechanistic in vitro studies indicate that the clinical drug–drug interactions between protease inhibitors and rosuvastatin are driven by inhibition of intestinal BCRP and hepatic OATP1B1 with minimal contribution from OATP1B3, NTCP and OAT3” (Pharmacology Research & Perspectives, 2023).
Several values for one entry are separate records, joined by “and”; a condition that tells them apart may be missing. Identical values can stand only once. Like-named read-outs stand apart in the source and are kept apart here. Marks after values point to notes of the source that are not given here.

Experiments:
[1] = tested on: intestinal BCRP and hepatic OATP1B1, OATP1B3, NTCP; conditions: rosuvastatin; ref Elsby et al.[13]; cited from earlier work
[2] = Pharmacokinetic parameters of protease inhibitors in clinical interaction studies with rosuvastatin; conditions: calculated, clinical dose of Table 5
[3] = tested on: intestinal BCRP and hepatic OATP1B1, OATP1B3, NTCP
[4] = tested on: intestinal BCRP and hepatic OATP1B1, OATP1B3, NTCP; assay: Mechanistic static prediction of rosuvastatin AUC change (AUCR); conditions: predicted AUCR 1.01
OATP1B1 = conditions: probe substrate atorvastatin; ref Karlgren et al.[31]; cited from earlier work
human OATP1B3 (SLCO1B3) = target: T1, human OATP1B3 (SLCO1B3) (Homo sapiens, UniProt Q9NPD5); conditions: ≥10x [Iin max u]: atazanavir 50 μM, darunavir 15 μM, lopinavir 5 μM, ritonavir 0.3 μM; [3H]-estradiol 17β-D-glucuronide 0.02 μM
T1 sequence (Q9NPD5 1-702): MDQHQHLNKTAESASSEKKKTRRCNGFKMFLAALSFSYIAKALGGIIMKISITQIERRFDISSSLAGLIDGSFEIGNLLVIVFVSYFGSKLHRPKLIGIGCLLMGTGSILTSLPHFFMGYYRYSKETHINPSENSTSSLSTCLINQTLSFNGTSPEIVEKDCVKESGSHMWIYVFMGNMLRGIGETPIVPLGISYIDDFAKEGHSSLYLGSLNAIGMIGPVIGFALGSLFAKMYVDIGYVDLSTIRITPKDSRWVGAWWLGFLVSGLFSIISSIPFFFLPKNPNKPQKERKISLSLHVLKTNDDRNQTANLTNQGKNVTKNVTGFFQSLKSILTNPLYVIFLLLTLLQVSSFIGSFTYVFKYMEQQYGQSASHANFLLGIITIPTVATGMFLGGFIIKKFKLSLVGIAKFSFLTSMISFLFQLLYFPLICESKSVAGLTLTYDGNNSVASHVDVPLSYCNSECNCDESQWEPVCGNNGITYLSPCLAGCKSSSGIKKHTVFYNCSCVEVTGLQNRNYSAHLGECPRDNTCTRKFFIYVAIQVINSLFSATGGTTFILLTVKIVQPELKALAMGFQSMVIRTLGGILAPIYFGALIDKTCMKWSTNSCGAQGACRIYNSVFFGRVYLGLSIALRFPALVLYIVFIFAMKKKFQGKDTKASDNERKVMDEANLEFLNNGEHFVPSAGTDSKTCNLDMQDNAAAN

[5] = human, in vivo

Row | [Ig] maximal enterocyte concentration ([2]; (FaFg × ka × dose)/Qent) [µM] | [Iin max u] unbound maximum hepatic inlet concentration [2] [µM] | [Iin max] maximum hepatic inlet concentration [2] [µM] | inhibition [3] | Inhibition of OATP1B3-mediated probe substrate transport, single concentration screen (human OATP1B3 (SLCO1B3)) | Structure (SMILES) | Predicted AUCR, inhibition of BCRP and OATP1B1 alone (earlier model) [1] | Reduction in NTCP function reflected by predicted AUCR [4] [%] | Published IC50/Ki (OATP1B1) (OATP1B1) | [Ig] maximal enterocyte concentration [5] | [Iin max u] unbound maximum hepatic inlet concentration [5] [µM] | [Iin max] maximum hepatic inlet concentration [5]
1 | 142 | 4.90 | 35.0 | ~80% and 75% | produced inhibition | COC(=O)N[C@H](C(=O)N[C@@H](Cc1ccccc1)[C@@H](O)CN(Cc1ccc(-c2ccccn2)cc1)NC(=O)[C@@H](NC(=O)OC)C(C)(C)C)C(C)(C)C [atazanavir] | 2.13 | 4 | 0.91 (atorvastatin) μM |  |  | 
2 |  |  |  |  |  | Cc1cccc(C)c1OCC(=O)N[C@@H](Cc1ccccc1)[C@@H](O)C[C@H](Cc1ccccc1)NC(=O)[C@H](C(C)C)N1CCCNC1=O [lopinavir] |  |  |  | 42.4 ^d μM | 0.450 | 22.5 ^d μM
